According to patent US11752149B2, “Muscarinic acetylcholine M1 receptor antagonists” (Pipeline Therapeutics, Inc., priority 2019, dated 2023):

The compounds below were run against human M1 receptor (Homo sapiens (Human), UniProt P11229) (assay: In vitro functional assay of muscarinic acetylcholine receptor activity, aequorin calcium flux, reversal of EC80 acetylcholine). Conditions: not given.
human M1 receptor, sequence (P11229 whole entry): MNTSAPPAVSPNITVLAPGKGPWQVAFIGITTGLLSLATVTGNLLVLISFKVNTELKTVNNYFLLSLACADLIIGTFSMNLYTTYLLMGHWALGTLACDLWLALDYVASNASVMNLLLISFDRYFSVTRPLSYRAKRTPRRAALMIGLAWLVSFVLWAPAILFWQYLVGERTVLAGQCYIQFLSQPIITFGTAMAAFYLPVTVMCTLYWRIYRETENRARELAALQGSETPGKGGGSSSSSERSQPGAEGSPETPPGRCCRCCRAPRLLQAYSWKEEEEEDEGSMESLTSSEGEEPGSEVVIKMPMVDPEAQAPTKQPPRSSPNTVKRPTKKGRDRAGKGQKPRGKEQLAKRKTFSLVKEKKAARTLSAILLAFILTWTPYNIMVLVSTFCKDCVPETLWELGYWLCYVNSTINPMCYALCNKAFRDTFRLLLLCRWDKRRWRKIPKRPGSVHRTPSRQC
Type: cell-based
Description: CHO-K1 cells stably expressing human M1 receptor with aequorin (Perkin Elmer) were grown in F12 media (Gibco) containing 10% FBS (ATCC), 0.4 mg/mL geneticin (Sigma-Aldrich) and 0.25 mg/mL Zeocin (Invitrogen). Cells were grown as per the manufacturer's protocol. For compound testing, cells were grown to confluency and detached gently with Accutase (Sigma-Aldrich) followed by centrifugation for 5 min at 150×g. Cells were then re-suspended in assay buffer (i.e. DMEM/F-12 HEPES without phenol red (Invitrogen) with 0.1% BSA (Sigma-Aldrich)) at a density of 5×10^6 cells/ml. Under sterile conditions, 5 μM coelenterazine (Invitrogen) was added to the cells, mixed, then incubated at room temperature protected from light, with gentle agitation, for 4 h.
Primary compound plates were prepared in 100% DMSO in opaque 96-well plates (VWR) and serially diluted in half log increments. Secondary compound plates were prepared at 3× concentration in assay buffer. Compounds were added to white, clear bottom tissue culture treated 96-well plates (Fisher Scientific). Coelenterazine-loaded cells were then added at 5×10^5 cells/well.
Compounds and cells were incubated at room temperature for 30 min in the dark. Acetylcholine at the EC80 concentration was added and calcium flux measured using a FlexStation 3 (Molecular Devices). Sigmoidal dose-response curves were generated by measuring luminescence over 40 sec and calculating the area under the curve. Dose response curves and IC50 values were generated using Prism (GraphPad). Compounds were tested at a final concentration range of 100 pM to 10 μM in 0.1% DMSO.
`N#Cc1ccc(N2C3CCC2CN(C(=O)CCS(=O)(=O)c2ccccc2C2CC2(F)F)C3)nc1` (racemic) [Example 5, 6-(3-(3-((2-(2,2-difluorocyclopropyl)phenyl)-sulfonyl)-propanoyl)-3,8-diazabicyclo[3.2.1]octan-8-yl)nicotinonitrile] showed an IC50 of 0.01 to 0.1 µM. For `N#Cc1ccc(N2C3CCC2CN(C(=O)CCS(=O)(=O)c2ccccc2[C@@H]2CC2(F)F)C3)nc1` (single isomer, unassigned) [Example 36], the IC50 was 0.1 to 1 µM. In the case of `N#Cc1ccc(N2C3CCC2CN(C(=O)CCS(=O)(=O)c2cccc(F)c2)C3)nc1` [Example 7, 6-{3-[3-(3-fluorobenzenesulfonyl)propanoyl]-3,8-diazabicyclo[3.2.1]octan-8-yl}pyridine-3-carbonitrile], the IC50 is reported as 0.01 to 0.1 µM. With `N#Cc1ccc(N2C3CCC2CN(C(=O)CCS(=O)(=O)c2cc(F)cc(F)c2)C3)nc1` [Example 8, 6-{3-[3-(3,5-difluorobenzenesulfonyl)propanoyl]-3,8-diazabicyclo [3.2.1]octan-8-yl}pyridine-3-carbonitrile] the IC50 was 0.01 to 0.1 µM. In the case of `COc1cccc(S(=O)(=O)CCC(=O)N2CC3CCC(C2)N3c2ccc(C)nn2)c1` [Example 9, 3-(3-methoxybenzenesulfonyl)-1-[8-(6-methylpyridazin-3-yl)-3,8-diazabicyclo[3.2.1]octan-3-yl]propan-1-one], the IC50 is reported as 0.1 to 1 µM. `COc1cc(F)cc(S(=O)(=O)CCC(=O)N2CC3CCC(C2)N3c2ccc(C#N)cn2)c1` [Example 11, 6-{3-[3-(3-fluoro-5-methoxybenzenesulfonyl)propanoyl]-3,8-diazabicyclo [3.2.1]octan-8-yl}pyridine-3-carbonitrile] gave an IC50 of 0.01 to 0.1 µM. In the case of `COc1ccccc1S(=O)(=O)CCC(=O)N1CC2CCC(C1)N2c1ccc(C#N)cn1` [Example 12, 6-{3-[3-(2-methoxybenzenesulfonyl)propanoyl]-3,8-diazabicyclo [3.2.1]octan-8-yl}pyridine-3-carbonitrile], the IC50 is reported as 0.01 to 0.1 µM. In the case of `COc1ccc(F)cc1S(=O)(=O)CCC(=O)N1CC2CCC(C1)N2c1ccc(C#N)cn1` [Example 13, 6-{3-[3-(5-fluoro-2-methoxybenzenesulfonyl)propanoyl]-3,8-diazabicyclo [3.2.1]octan-8-yl}pyridine-3-carbonitrile], the IC50 is reported as 0.01 to 0.1 µM. For `COc1c(F)cccc1S(=O)(=O)CCC(=O)N1CC2CCC(C1)N2c1ccc(C#N)cn1` [Example 14, 6-{3-[3-(3-fluoro-2-methoxybenzenesulfonyl)propanoyl]-3,8-diazabicyclo [3.2.1]octan-8-yl}pyridine-3-carbonitrile], the IC50 was 0.01 to 0.1 µM. `COc1cc(S(=O)(=O)CCC(=O)N2CC3CCC(C2)N3c2ccc(C#N)cn2)ccn1` [Example 15, 6-(3-{3-[(2-methoxypyridin-4-yl)sulfonyl]propanoyl}-3,8-diazabicyclo[3.2.1]octan-8-yl)pyridine-3-carbonitrile] was tested, and the IC50 was 0.01 to 0.1 µM.

Same assay, conditions: CHO-K1 cells expressing human M1 receptor with aequorin; acetylcholine at EC80; read-out: M1 IC50
`N#Cc1ccc(N2C3CCC2CN(C(=O)CCCS(=O)(=O)c2ccccc2I)C3)nc1` [Example 1, 6-(3-(4-((2-iodophenyl)sulfonyl)butanoyl)-3,8-diazabicyclo[3.2.1]octan-8-yl)nicotinonitrile] showed an IC50 of under 0.01 µM. `N#Cc1ccc(N2C3CCC2CN(C(=O)CCS(=O)(=O)c2cccc(F)c2C2CC2)C3)nc1` [Example 4, 6-(3-(3-((2-cyclopropyl-3-fluorophenyl)sulfonyl)-propanoyl)-3,8-diazabicyclo[3.2.1]octan-8-yl)nicotinonitrile] gave an IC50 of under 0.01 µM. `CC(C)(O)c1cc(S(=O)(=O)CCC(=O)N2CC3CCC(C2)N3c2ccc(C#N)cn2)ccc1F` [Example 6, 6-(3-(3-((4-fluoro-3-(2-hydroxypropan-2-yl)phenyl)-sulfonyl)propanoyl)-3,8-diazabicyclo[3.2.1]octan-8-yl)nicotinonitrile] gave an IC50 of 1 to 10 µM. With `COc1cccc(S(=O)(=O)CCC(=O)N2CC3CCC(C2)N3c2ccc(C)nc2)c1` [Example 10, 3-(3-methoxybenzenesulfonyl)-1-[8-(6-methylpyridin-3-yl)-3,8-diazabicyclo[3.2.1]octan-3-yl]propan-1-one] the IC50 was 1 to 10 µM.
